{"source": "patent US10278971B2", "about": "“Fluorocyclopentenylcytosine methods of use” (Rexahn Pharmaceuticals, Inc., priority 2015, dated 2019)", "key": {"[1]": {"tested_on": "H460", "assay": "Cell cycle distribution by flow cytometry (PI)", "assay_type": "cell-based, human", "settings": "H460, 1 μM, 24 hour exposure", "description": "The effect of RX-3117 on cell cycle regulation and cell death in human non-small cell lung cancer (NSCLC) cell lines A549 (adenocarcinoma), SW1573 (alveolar carcinoma) and SW1573/G- (SW1573 cell line resistant to gemcitabine) and H460 (large cell carcinoma) was assessed. The A549 and H460 cell lines were obtained from American Type Culture Collection (Manassas, Va., USA). The SW1573 cell line, obtained from Dr. Johan van Rijn (see Keiser et al., Cancer Research, 49:2988-2993 (1989)), also served as the parental cell line for SW1573/G-. A549, SW1573, and SW1573/G- and H460 were kept in exponential growth in T25 flasks (Greiner Bio-One GmbH, Frickenhausen, Germany) and cultured in Dulbecco's minimal essential medium (DMEM) or RPMI 1640 (A549) supplemented with 10% heat-inactivated fetal bovine serum (FBS) 1% streptomycin and penicillin 20 mM HEPES and maintained in 37° C. water saturated atmospheres of 5% CO2. For the cell cycle distribution, 1.5×10^5 cells were seeded in a T25 flask (Greiner Bio-One GmbH) and cultured for 72 hours after which 1 μM of RX-3117 was added and incubated for 24 hours. The cells were then harvested. After the treatment, the medium was collected in a 15 ml tube (Greiner Bio-One GmbH). […] The cells stained with the PI solution were analyzed by FACSCalibur™ (BD Biosciences, Mount View, Calif., USA). Data was analyzed with CellQuest™ Pro software."}, "[2]": {"tested_on": "advanced malignant tumors", "assay": "Efficacy in subjects with advanced malignant tumors", "assay_type": "in vivo, human", "settings": "48 subjects enrolled", "description": "The efficacy, safety and tolerability of RX-3117 at various doses and frequencies were evaluated (see Example 4, above). Subjects with advanced malignant tumors were administered capsules containing RX-3117 at various doses, from TIWK to 7 times per week for 3 weeks with 1 week off during each 4-week cycle. Dose escalation begins with an accelerated design treating 1 subject per dose (Simon et al., J. Natl. Cancer Inst., 89(15):1138-47 (1997) followed by a standard 3+3 design using a modified Fibonacci sequence after the occurrence of a single related Grade 2 or greater adverse event. Table 4 (above) summarizes the dosing schedule."}}}
{"smiles": "Nc1ccn([C@@H]2C(F)=C(CO)[C@@H](O)[C@H]2O)c(=O)n1", "note": "[RX-3117, 4-amino-1-((1S,4R,5S)-2-fluoro-4,5-dihydroxy-3-hydroxymethyl-cyclopent-2-enyl)-1H-pyrimidin-2-one]", "values": [{"measurement": "accumulation of cells in the G1 phase", "setting": "[1]", "value": "induced accumulation"}, {"measurement": "increased accumulation of cells in the G1 phase", "setting": "[1]", "value": "20-40%"}, {"measurement": "subjects with stable disease for 1 to 10 cycles", "setting": "[2]; various oral doses and frequencies", "value": "Seventeen"}, {"measurement": "subjects with tumor burden reduction", "setting": "[2]; pancreatic, breast and mesothelioma cancers", "value": 3, "unit": "subjects"}]}
